Assay results taken from US7794972B2, “Benzoate-and anthranilate-inducible promoters” (priority 2002, dated 2010).
“Also recorded” adds a separate entry of the source.

B1: Pant promoter with multi-copy antR: anthranilate-inducible promoter of P. fluorescens with the AntR activator coding sequence, a1-c1395 of SEQ ID NO:13 (nucleic acid)
DNA: AGCTTGCATGCCTGCAGGTTTAAACAGTCGACTCTAGACTTAATTAACTATCGCAGGCAAGCCAGCTCCCACAGATTGTTTTTCATCCAGTTCAAGTAATGCGCAGGCGCTTGCGCTGCAATGTCTGGCTGGGCGACTCATCGAACAGCTTGCGGTACTCCGCCGAAAACCGCCCCAAATGCGTAAACCCCCAACCCAGGGCGATTTCAGAGATGGTGCGGATCGAGCCCTGCTCCAGAATTTCTTGGCGCACCGCCCCCAACCGATGCTTCTTCAAATACGACATGGGCGACAGTGCGAAGTACTTGCGAAACGCATCGAACAGTTTGAAACGCGACACGCCCGCCGCCGCTTCCAGGTCTTCCAGGTGCAGCGCTTCACGGGCGTTGTCGTGGATAAATTGCCGCGCGCGGATCAGGTAGTGCGGCAGTTTCACCCCCAGCACGTCGCGCAGTTCTTCGGAGTAGTTATTCGGTTGGGCCAGGATCAGGCCCTTGATCAGCGAGCTTTCCAGGTCGCGAGTAAACGCCGCCTGCTCGTACAGTTCGCTGCTGCGCTCCAGTTCGGCGATGAAATAACGCGCCATGCGCCACCACGAAGCCGGTGCTCCGTCCACAGCATCCATCACCGACTCAAAGCGCAGCGGCGCATCAATGGGCCGTTGCAGCAAACCTTCCAGCGACTCGCTCATCGCCGCACGGGTGATTACCACCTGCAACTTGCGGCAGTCACCGGAAATCGCCAGCACCTGATGCTCATTGGGCGAAATGATCACGCCTTGGTCGCGGTTGGAACTGAGACGTTCACCGTTCTTGCTCAGCTCCTGCTCGCCCACCAGTGGCAGGCTCAAGCTGTAGCTGCTGAAGTGCTCGGCGTCTTCGATGTCGATGGTCACATCAGTGCCGTACTCGATCACGCCCAGGGTGGTGGCGCGGGATTTGAACACGTTGGCGCTGTGGTGAAAGCGCAGGCGCTCGGGGGTTGCCGTCGCCAGGCGATGGGGCCCGCAGATGCCGGACATCCAGCTGCGCGCGCCTTCCAGGTCGAAGCGTTGAATATGAATATCGCGTGTCTGACTAGTCATCAGGGTGCACCCACGGCGGTTAGGCGTTTGCGCGCTCTGACGGCGCGTCGTTGAACCTCGACAGCAAGTTCCAGGCCACGCCAGTGCAGTTCTCACTGGGTGGATAGCAACGGTCGACTATGTGGATAAACCCCAGAGTTTTGCGACCATCGCCCGCCATCACAGTAGCGCATGCCGTCACCGGCGCGCACCGTCATGGGTATTTGCCGCCCAACTTTGCGGCCTACGTTCCCCCATTAAGCGGATAGCCCGCCACCGCATCGCAGCCGCTTAATGGCTCACCGTTTAGCCATGATCAAAAGGTGCCTCCC
modifications: Construct containing the pDOW1057 Pant-Pben tandem promoter

Experiments:
Format in all cases: cell-based, Pseudomonas fluorescens
[1] = tested on: Pant promoter (Pant713, antR/Pant); test: Anthranilate promoter (Pant) reporter gene induction (lacZ / phoA); conditions: for induction of the anthranilate promoter: P. fluorescens, reporter gene lacZ or phoA
Procedure: (§1) Cell growth for induction: Strains of interest were grown overnight (at 30° C. with shaking at 250 rpm) in 1×M9 minimal salts medium (diluted from a 5× preparation purchased from Fisher Scientific, Pittsburgh, Pa.) supplemented with 0.5% or 1% (w/v) glucose, 1 mM MgSO4, and trace elements (for trace elements, the present examples used a solution containing salts of sodium, magnesium, manganese, iron, and cobalt, all at less than 0.5 mg/mL final concentration). Strains were then subcultured 1:4 in the same medium to a volume of 10 or 20 mL and then induced with 0-10 mM concentrations of anthranilate or benzoate, as indicated.
(§2) Strains of interest were grown overnight at 30° C. in 1×M9 medium supplemented with 0.5% or 1% (w/v) glucose, 1 mM MgSO4, and 5L/L trace elements (as described above), and optionally tetracycline at 15 ug/mL. These were then subcultured 1:4 or 1:5 in the same medium and then induced with indicated concentrations of anthranilate, benzoate, or other inducer, for a desired amount of time (e.g., for 2, 4, 6, 8, 12, or 24 hours, or overnight). Samples were taken at indicated times and those samples were assayed for reporter gene activity. Results are reported at time points taken at a given number of hours post-induction; time points are indicated by either a numeral for the number of hours, and in some cases this number is immediately preceded by the letter “I” indicating post-induction.
(§3) We prepared enough of the following assay medium to provide for each sample well of a 96-well plate (i.e. for all those wells used, with at least one well being used for each time point measured during the reaction course for each sample): 152 μL Z buffer (0.06M Na2HPO4.7H2O, 0.04M NaH2PO4.H2O, 0.01M KCl, 0.001M MgSO4.7H2O)+8 μL 1M β-mercaptoethanol. For each 900 μL of the resulting mix, we added one drop of 0.1%SDS and two drops of CHCl3, mixed (using a vortex-type mixer), and then added 144 μL thereof to each well. 16 μL of cells were then added to each well and the plate sealed with a plastic plate sealer. The plate was then mixed (by vortex) for 10 seconds, and then equilibrated to incubation temperature (room temperature) for 5 minutes. 50 μL 4 mg/mL ONPG was then added. When a significant yellow color developed, 90 μL stop solution (1M Na2CO3) was added and the reaction time recorded. The resulting color intensity for each sample was then read at A420 and A550. In addition, the cell density of each culture providing the 16 μL of cells used in each sample was read at A600. Miller Units were calculated as follows: • 1000 * ((A420−(1.75*A550))/(time(in minutes) *0.1 * A600)). Alkaline Phosphatase Assas
(§4) For this assay we prepared SIGMA FAST (p-nitrophenyl phosphate (PNPP) substrate, from Sigma-Aldrich Corp., St. Louis, Mo.) by adding one of each tablet provided by the manufacturer (one table each PNPP and Tris; stored at −20° C.) to 20 mL ddH2O, giving a final concentration of 1 mg/mL PNPP and 0.2M Tris. At each time point, for each sample, 50 μL SIGMA FAST substrate was combined with 5 μL of cells. The result was then incubated at room temperature for 30 minutes. The resulting color intensity for each sample was then read at A410. In addition, the cell density of each culture providing the 5 μL of cells used in each tested sample was read at A600 (i.e. the cell cultures were read in a 96 well plate). The value of A410/(0.1 * A600) was then calculated to express alkaline phosphatase activity/cell.
Anthranilate, like benzoate, is an inexpensive low toxic compound that can be utilized by P. fluorescens, making it an ideal compound to investigate as an inducer. […]. […] Expansion of the promoter clone to include the transcriptional activator gene 5′ of the antA open reading frame (ORF) increased expression levels of the lacZ fusion. […]

[2] = tested on: Pant-Pben tandem promoter; test: Pant-Pben tandem promoter reporter gene induction (lacZ); conditions: for induction of the Pant-Pben tandem promoter: P. fluorescens
Procedure: as §1, §2, §3
However, unlike the catabolite-repressed Pben promoter, the activity of the Pant promoter was not inhibited during fermentation A fusion of these two promoters was created by linking them together, as shown in SEQ ID NO:3, i.e. by cloning a fragment antR and Pant, upstream of the Pben278 promoter fused to lacZ.

[3] = tested on: Pben promoter (Pben509, Pben278); test: Benzoate promoter (Pben) reporter gene induction (lacZ β-galactosidase / phoA alkaline phosphatase); conditions: for induction of the benzoate promoter (Pben509, Pben278): P. fluorescens MB101, reporter gene lacZ or phoA
Procedure: as §1, §2, §3, §4
Benzoate-inducible promoter activity was tested by fusing the DNA fragment containing the putative promoter sequence of Pben509, or of Pben278 (described below), upstream of an easily assayable reporter gene (i.e. either lacZ, which encodes β-galactosidase and was used as the chief reporter gene, orphoA). The resulting plasmid was transformed into P. fluorescens MB101. […]

| Molecule | induction of the anthranilate promoter [1] | induction of the Pant-Pben tandem promoter [2] | induction of the benzoate promoter (Pben509, Pben278) [3] | further results |
| --- | --- | --- | --- | --- |
| Nc1c(Cl)cccc1C(=O)O [3-chloro-anthranilate] | inducible | – | – | – |
| Nc1cc(Cl)ccc1C(=O)O [4-chloro-anthranilate] | inducible | – | – | – |
| Nc1ccc(Cl)cc1C(=O)O [5-chloro-anthranilate] | inducible | – | – | – |
| Nc1cccc(Cl)c1C(=O)O [6-chloro-anthranilate, 6-chloroanthranilate] | inducible | – | – | – |
| Nc1ccccc1C(=O)O [anthranilic acid] | inducible | inducible | – | – |
| O=C(O)c1ccccc1 [benzoic acid] | – | inducible | inducible | – |
| Oc1ccccc1O [catechol] | – | – | fail to induce | – |
| O=C(O)/C=C\C=C/C(=O)O [cis, cis-muconate] | – | – | fail to induce | – |
| Cc1cccc(C(=O)O)c1 [m-toluic acid] | – | – | inducible | – |
| Cc1ccccc1C(=O)O [o-toluate] | induce this promoter as well as does anthranilate | induce this promoter as well as does anthranilate | – | – |
| Nc1ccccc1C(=O)[O-].[Na+] [sodium anthranilate] | inducible | inducible | – | strength of the tandem antR/Pant-Pben278 construct upon induction, compared with component promoter alone ([2]; lacZ fusion, in the presence of glucose): improved |
| O=C([O-])c1ccccc1.[Na+] [sodium benzoate] | – | – | inducible; also recorded: show β-galactosidase or alkaline phosphatase activity | induction of the benzoate promoter (Pben509, Pben278) ([3]; listed as benzoate): benzoate was indeed the inducer for Pben; induction of expression of exogenous genes, benzoate promoter ([3]; induced with 5 mM sodium benzoate): about 250 fold |
| B1 | – | – | – | relative strength of promoter versus Pben278 promoter ([1]; Pant with multi-copy antR): approximately ⅕ |
